{"source": "patent US20060194874A1", "about": "“Use of propionyl l-carnitine for the preparation of a medicament for the treatment of glaucoma” (priority 2002, published 2006)", "key": {"[1]": {"tested_on": "3T6 cells (murine fibroblast line)", "test": "Cell count with erythrosine stain, 3T6 cells grown in complete medium", "type": "cell-based", "settings": "3T6 cells in complete medium, count 24 hours after administration", "method": "3T6 cells (murine fibroblast line) grown in complete medium (DMEM: 10% NBS, 2% PEST and 2% glutamine) were treated with propionyl L-carnitine 24 hours after plating the cells. 48 hours after plating (24 hours after administration of the substance), a cell count was performed on the cells thus treated with an erythrosine stain that detects cells that are no longer viable (diluted 1:5 with PBS A buffer) from which the cell survival data were obtained. As controls, we used cells cultivated in complete medium on which the cell count was performed, again 24 hours after plating."}, "[2]": {"tested_on": "patients suffering from glaucoma", "test": "Clinical trial: ocular colour Doppler ultrasonography, visual field (Octopus) and intraocular pressure", "type": "in vivo, human", "method": "Ten patients suffering from glaucoma were treated with propionyl L-carnitine (DROMOS®) by mouth at a dose of 2 g/day for periods ranging from 15 to 50 days. Ocular arterial flow was studied by means of ocular colour Doppler ultrasonography. The posterior (nasal) ciliary artery, the posterior (temporal) ciliary artery, the central retinal and ophthalmic arteries were examined. Systolic and diastolic flow rates were expressed in cm/sec; the ratio (systolic—diastolic flow)/systolic flow expresses the peripheral resistance index. Visual fields before and after treatment with DROMOS® were compared."}, "[3]": {"tested_on": "3T6 cells (murine fibroblast line)", "test": "Cell count with erythrosine staining, serum-deprived 3T6 cells (induced apoptosis)", "type": "cell-based", "settings": "0.25 mM, 0.55 mM, 1.1 mM", "method": "In subsequent experiments, apoptosis was induced in 3T6 cells 24 hours after plating by means of serum deprivation, and simultaneously propionyl L-carnitine was added to the cells. Three different concentrations of the compound were used: 0.25 mM, 0.55 mM and 1.1 mM. 48 hours after plating (24 hours after administration of the substance) a cell count with erythrosine staining was performed. Cells grown in complete medium were taken as the negative control and serum-deprived cells as the positive control."}, "[4]": {"tested_on": "3T6 cells (murine fibroblast line)", "test": "TUNEL reaction in vitro (chromatin status) in serum-deprived 3T6 cells", "type": "cell-based", "method": "(§1) To assess the chromatin status (and thus the apoptosis) in serum-deprived 3T6 cells, and, in cells treated with propionyl L-carnitine, a TUNEL (terminal deoxynucleotidyl transferase-mediated dUTP-biotin end labelling) reaction was performed in vitro. TUNEL labelling is a technique that consists in the addition of nucleotides (conjugated with fluorescein) at the free 3′-OH extremities present in the fragmented DNA. This reaction is catalysed by the terminal enzyme transferase. The TUNEL technique was performed on untreated serum-deprived cells and on serum-deprived cells to which the three concentrations (0.25 mM, 0.55 mM, and 1.1 mM) of propionyl L-carnitine already used for the cell counts were administered. […] The binding of the primary antibody with its epitope to BAX was detected with a secondary antibody that exploits DAB ([…]) staining. The cells subjected to cytoimmunological localisation were deprived of serum 24 hours after plating and treated with propionyl L-carnitine at the above-mentioned concentrations. Cells grown in complete medium were used as the positive control, while the negative control was prepared with cells deprived of serum 24 hours after plating."}, "BAX": {"tested_on": "BAX", "test": "Cytoimmunological localisation of BAX (DAB staining, haematoxylin counterstain) in serum-deprived 3T6 cells", "type": "cell-based, murine", "method": "as §1\nCounterstaining with a nuclear dye such as haematoxylin was also performed in order to confirm the fact that the staining obtained with cytoimmunological localisation was effectively cytoplasmic. On the basis of the data reported in the literature, in fact, it is known that BAX is a cytoplasmically localised protein. […] On comparing the data obtained in the cell counts, with the TUNEL technique and with cytoimmunological localisation, an improvement can be found in cell survival after treatment with propionyl L-carnitine. This proves evident both in cells grown in complete medium and in cells grown in conditions in which apoptosis is induced as a result of serum deprivation."}, "[5]": {"tested_on": "ganglionic cells of the retina and/or astrocytes of the optic nerve", "test": "In-vivo rat model of methylcellulose (MTC)-induced intraocular hypertension (experimental glaucoma): histology and TUNEL", "method": "The effect of propionyl L-carnitine was evaluated in an in-vivo experimental rat model. This model of induction of programmed cell death (apoptosis) and/or necrosis of ganglionic cells of the retina and/or astrocytes of the optic nerve is described in the above-mentioned Acta Ophthalmologica Scandinavica, 1988, Supplement 27, 20-21 and Experimental Postgraduate Degree Thesis, Institute of Ophthalmology, “La Sapienza” University, Rome. Intraocular hypertension was induced by means of injecting methylcellulose (MTC) into the anterior chamber. The rats were divided into three groups: 1) untreated (blanks), 2) rats treated with 2% MTC (10 μL), and 3) rats treated with MTC and propionyl L-carnitine 0.15 mM final concentration injected into the anterior chamber. In semithin histological sections of untreated rat optic nerve (haematoxylin-eosin staining), normal longitudinal organisation of the astrocytes among the fibres was detected (FIG. 1A). In contrast, in rats treated with MTC, loss of cell organisation and the presence of necrotic astrocytes were detected (FIG. 1B)."}, "[6]": {"settings": "ten glaucoma patients, 2 g/day by mouth, 15 to 50 days"}}, "data": [{"smiles": "CCC(=O)O[C@H](CC(=O)[O-])C[N+](C)(C)C", "note": "[propionyl L-carnitine]", "values": [{"measurement": "cell growth (cell count) compared to untreated control cells", "setting": "[1]", "value": "an increase in cell growth"}, {"measurement": "Visual field (Octopus) after treatment, MD", "setting": "[2]; Patient 1, OS, 30 days of treatment, before treatment 2", "value": 5.6}, {"measurement": "Visual field (Octopus) after treatment, MS", "setting": "[2]; Patient 1, OS, 30 days of treatment, before treatment 11.6", "value": 20.2}, {"measurement": "Posterior nasal ciliary artery resistance index (R.I.) after treatment", "setting": "[2]; Patient 1, SN, 30 days, before treatment 0.63", "value": 0.66}, {"measurement": "Posterior nasal ciliary artery diastolic flow after treatment", "setting": "[2]; Patient 1, SN, 30 days, before treatment 2.21", "value": 5.75, "unit": "cm/sec"}, {"measurement": "Posterior nasal ciliary artery systolic flow after treatment", "setting": "[2]; Patient 1, SN, 30 days, before treatment 5.96", "value": 16.7, "unit": "cm/sec"}, {"measurement": "Posterior temporal ciliary artery resistance index (R.I.) after treatment", "setting": "[2]; Patient 2, DX, 12 days, before treatment (SN) 0.67", "value": 0.55}, {"measurement": "Posterior temporal ciliary artery diastolic flow after treatment", "setting": "[2]; Patient 2, DX, 12 days, before treatment (SN) 1.92", "value": 3.86, "unit": "cm/sec"}, {"measurement": "Posterior temporal ciliary artery systolic flow after treatment", "setting": "[2]; Patient 2, DX, 12 days, before treatment (SN) 5.75", "value": 8.65, "unit": "cm/sec"}, {"measurement": "Visual field (Octopus) after treatment, MD", "setting": "[2]; Patient 2, OD, 12 days of treatment, before treatment 11.1", "value": 8.4}, {"measurement": "Visual field (Octopus) after treatment, MS", "setting": "[2]; Patient 2, OD, 12 days of treatment, before treatment 15.5", "value": 16.2}, {"measurement": "visual fields", "setting": "[2]; subjects with stable glaucoma, 2 g/day by mouth", "value": "improves visual fields"}, {"measurement": "intraocular pressure (IOP)", "setting": "[2]; [6]", "value": "no significant reduction in IOP"}, {"measurement": "ocular arterial flows", "setting": "[2]; [6]", "value": "increases the flows"}, {"measurement": "peripheral resistance index in the sectors affected", "setting": "[2]; [6]", "value": "reduces the resistance index"}, {"measurement": "cell viability compared to negative control (complete medium)", "setting": "[3]", "value": "still less than that obtained in the negative control"}, {"measurement": "cell mortality compared to serum-deprived cells (positive control)", "setting": "[3]; count 24 hours after administration", "value": "a reduction in cell mortality"}, {"measurement": "cytoprotective effect, dependence on concentration", "setting": "[4]; 0.25 mM, 0.55 mM, 1.1 mM", "value": "increased with the increase in concentration"}, {"measurement": "chromatin fragmentation (TUNEL fluorescence intensity)", "setting": "[4]; serum-deprived 3T6 cells vs untreated serum-deprived cells, FIG. 3B", "value": "a marked reduction in chromatin fragmentation"}, {"measurement": "alterations of chromatin condensation (haematoxylin counterstaining)", "setting": "BAX; serum-deprived 3T6 cells after treatment", "value": "tend to be reduced"}, {"measurement": "BAX expression, dependence on concentration", "setting": "BAX; serum-deprived 3T6 cells, 0.25 mM, 0.55 mM, 1.1 mM", "value": "proportional to the different concentrations"}, {"measurement": "expression of BAX compared to untreated serum-deprived cells", "setting": "BAX; serum-deprived 3T6 cells, FIG. 4B", "value": "a lower expression of BAX"}, {"measurement": "organisation of astrocytes in semithin histological sections of optic nerve", "setting": "[5]; rats treated with 2% MTC (10 μL) and propionyl L-carnitine 0.15 mM final concentration, injected into the anterior chamber, haematoxylin-eosin, FIG. 1C", "value": "longitudinal organisation among the fibres"}, {"measurement": "necrotic cells (astrocytes) in optic nerve sections", "setting": "[5]; rats treated with 2% MTC and propionyl L-carnitine 0.15 mM, anterior chamber, FIG. 1C", "value": "no necrotic cells were detected"}, {"measurement": "TUNEL fluorescence (apoptotic cells) in optic nerves", "setting": "[5]; rats treated with MTC and propionyl L-carnitine 0.15 mM, anterior chamber, fluorescence microscopy, FIG. 2B", "value": "the presence of TUNEL fluorescence was not observed"}]}]}
